Source: ChEMBL document CHEMBL1139445, “Synthesis of potent and selective 2-azepanone inhibitors of human tryptase” (Bioorg Med Chem Lett, 2004)
Several values for one entry are separate records, joined by “and”; a condition that tells them apart may be missing. Identical values can stand only once.

How the values were obtained:
[1] = molecular target: Serine protease 1 (Homo sapiens, UniProt P07477); experiment: Compound was tested for inhibition of human trypsin; parameters: reference not given here
Sequence of Serine protease 1 (P07477 whole entry): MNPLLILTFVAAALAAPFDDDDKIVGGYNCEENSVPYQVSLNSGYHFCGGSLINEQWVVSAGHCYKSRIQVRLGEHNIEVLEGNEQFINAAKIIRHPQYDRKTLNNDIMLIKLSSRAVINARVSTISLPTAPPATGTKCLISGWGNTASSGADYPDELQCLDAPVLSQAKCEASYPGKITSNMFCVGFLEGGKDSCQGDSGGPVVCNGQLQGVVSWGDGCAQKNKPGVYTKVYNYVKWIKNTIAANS

[2] = molecular target: Urokinase-type plasminogen activator (Homo sapiens, UniProt P00749); experiment: Compound was tested for inhibition of human urokinase-type plasminogen activator
[3] = molecular target: Tryptase (Homo sapiens, UniProt Q9BZJ3+Q15661+Q9NRR2); experiment: Inhibition of human tryptase.; assay type: protein assay

Row | Structure (SMILES) | IC50 [3] | selectivity ratio [1] | selectivity ratio [2]
1 | Cc1ccc(CN)cc1NC(=O)CN1CCCCC(NC(=O)c2ccc(-c3ccccc3)cc2)C1=O (centres undefined) | 0.074 µM | > 450 | > 450
2 | Cc1ccc(-c2ccc(C(=O)NC3CCCCN(CC(=O)Nc4cccc(CN)c4)C3=O)cc2)cc1 (centres undefined) | 1.3 µM |  | 
3 | NCCCCCNC(=O)CN1CCCCC(NC(=O)c2ccc(-c3ccccc3)cc2)C1=O (centres undefined) | 12 µM |  | 
4 | NC1CCCc2ccc(NC(=O)CN3CCCCC(NC(=O)c4ccc(-c5ccccc5)cc4)C3=O)cc21 (centres undefined) | > 33 µM |  | 
5 | NCc1cccc(NC(=O)CN2CCCCC(NC(=O)Cc3ccc(-c4ccccc4)cc3)C2=O)c1 (centres undefined) | 5.2 µM |  | 
6 | NCC1CCC(NC(=O)CN2CCCCC(NC(=O)c3ccc(-c4ccccc4)cc3)C2=O)CC1 (centres undefined) | 12 µM |  | 
7 | NCc1cccc(NC(=O)CN2CCCCC(NC(=O)COc3ccc4ccccc4c3)C2=O)c1 (centres undefined) | 4.6 µM |  | 
8 | O=C(CN1CCCCC(NC(=O)c2ccc(-c3ccccc3)cc2)C1=O)Nc1ccc2c(c1)CNCC2 (centres undefined) | > 33 µM |  | 
9 | NCc1ccc(NC(=O)CN2CCCCC(NC(=O)c3ccc(-c4ccccc4)cc3)C2=O)cc1 (centres undefined) | 3.6 µM |  | 
10 | CNCc1cccc(NC(=O)CN2CCCCC(NC(=O)c3ccc(-c4ccccc4)cc3)C2=O)c1 (centres undefined) | > 33 µM |  | 
11 | NCc1cccc(NC(=O)CN2CCCCC(NC(=O)c3cnc4ccccc4c3)C2=O)c1 (centres undefined) | 15 µM |  | 
12 | NCc1cccc(CNC(=O)CN2CCCCC(NC(=O)c3ccc(-c4ccccc4)cc3)C2=O)c1 (centres undefined) | 13 µM |  | 
13 | NCc1cccc(NC(=O)CN2CCCCC(NC(=O)c3ccc(Cc4ccccc4)cc3)C2=O)c1 (centres undefined) | 0.98 µM |  | 
14 | NCc1cccc(NC(=O)CN2CCCCC(NC(=O)CCCCc3ccccc3)C2=O)c1 (centres undefined) | 2.9 µM |  | 
15 | NCc1cccc(NC(=O)CN2CCCCC(NC(=O)c3ccc(-c4ccccc4)cc3)C2=O)c1 (centres undefined) | 0.25 µM and > 0.25 µM | > 130 | > 130
16 | Nc1cccc(CNC(=O)CN2CCCCC(NC(=O)c3ccc(-c4ccccc4)cc3)C2=O)c1 (centres undefined) | > 33 µM |  | 
17 | NCc1cccc(NC(=O)CN2CCCCC(NC(=O)CC(c3ccccc3)c3ccccc3)C2=O)c1 (centres undefined) | 0.2 µM | > 170 | > 170
18 | NCc1ccc(Cl)c(NC(=O)CN2CCCCC(NC(=O)c3ccc(-c4ccccc4)cc3)C2=O)c1 (centres undefined) | 0.038 µM | 360 | > 870
19 | NC(=O)c1cccc(NC(=O)CN2CCCCC(NC(=O)c3ccc(-c4ccccc4)cc3)C2=O)c1 (centres undefined) | > 33 µM |  | 
20 | COc1ccc(CN)cc1NC(=O)CN1CCCCC(NC(=O)c2ccc(-c3ccccc3)cc2)C1=O (centres undefined) | 0.89 µM |  | 
21 | NCc1cccc(NC(=O)CN2CCCCC(NC(=O)c3ccc(C4CCCCC4)cc3)C2=O)c1 (centres undefined) | 0.98 µM |  | 

Continued, in another order:

Row | IC50 [3] | Structure (SMILES) | selectivity ratio [1] | selectivity ratio [2]
22 | > 33 µM | NCc1ccccc1NC(=O)CN1CCCCC(NC(=O)c2ccc(-c3ccccc3)cc2)C1=O (centres undefined) |  | 
23 | > 33 µM | CCN(CC)Cc1cccc(NC(=O)CN2CCCCC(NC(=O)c3ccc(-c4ccccc4)cc3)C2=O)c1 (centres undefined) |  | 
24 | > 33 µM | NCCCCCCNC(=O)CN1CCCCC(NC(=O)c2ccc(-c3ccccc3)cc2)C1=O (centres undefined) |  | 
25 | > 33 µM | Nc1ccc(CNC(=O)CN2CCCCC(NC(=O)c3ccc(-c4ccccc4)cc3)C2=O)cc1 (centres undefined) |  | 
26 | > 33 µM | NCCCCNC(=O)CN1CCCCC(NC(=O)c2ccc(-c3ccccc3)cc2)C1=O (centres undefined) |  | 
27 | > 33 µM | O=C(CN1CCCCC(NC(=O)c2ccc(-c3ccccc3)cc2)C1=O)NCC1CCNCC1 (centres undefined) |  | 
28 | 4.6 µM | CCc1ccc(C(=O)NC2CCCCN(CC(=O)Nc3cccc(CN)c3)C2=O)cc1 (centres undefined) |  | 
29 | 2.9 µM | CCc1ccc(-c2ccc(C(=O)NC3CCCCN(CC(=O)Nc4cccc(CN)c4)C3=O)cc2)cc1 (centres undefined) |  | 
30 | 2.1 µM | NCc1cccc(NC(=O)CN2CCCCC(NC(=O)c3ccc(-c4ccc(Cl)c(Cl)c4)cc3)C2=O)c1 (centres undefined) |  | 
31 | 11 µM | NCCc1ccc(NC(=O)CN2CCCCC(NC(=O)c3ccc(-c4ccccc4)cc3)C2=O)cc1 (centres undefined) |  | 
